How the values were obtained:
[1] = test system: Monocotyledonous and dicotyledonous test plants; test: Herbicidal action before emergence of the plants (pre-emergence action); type: in vivo; settings: 2000 g/ha, evaluated after 3 weeks, nine-step scale
Experimental: Monocotyledonous and dicotyledonous test plants are sown in standard soil in plastic pots. Immediately after sowing, the test substances as aqueous suspensions (prepared with a 25% wettable powder (Example F3, b) in accordance with WO 97/34485) or as emulsions (prepared with a 25% emulsion concentrate (Example F1, c)) are sprayed on at a rate of 2 kg of a.i./ha or 250 g of a.i./ha (500 l of water/ha). The test plants are then grown in the greenhouse under optimal conditions. After a test period of 3 weeks, the experiment is evaluated with reference to a nine-step scale (1=complete damage, 9=no effect). Score figures of 1 to 4 (in particular 1 to 3) mean a good to very good herbicidal action.

[2] = test system: Monocotyledonous and dicotyledonous test plants; test: Post-emergence herbicidal action; type: in vivo; settings: 2000 g/ha, sprayed in 4- to 6-leaf stage, evaluated after approximately 18 days, nine-step scale
Experimental: Monocotyledonous and dicotyledonous test plants are grown in the greenhouse in plastic pots containing standard soil, and, in the 4- to 6-leaf stage, sprayed with an aqueous suspension of the test substances of the formula I prepared with a 25% wettable powder (Example F3, b) in accordance with WO 97/34485) or with an emulsion of the test substances of the formula I prepared with a 25% emulsion concentrate (Example F1, c) in accordance with WO 97/34485), corresponding to a rate of 2 kg of a.i./ha or 250 g of a.i./ha (500 l of water/ha). The test plants are subsequently grown on in the greenhouse under optimal conditions. After a test period of approximately 18 days, the test is evaluated with reference to a nine-step scale (1=complete damage, 9=no effect). Score figures of 1 to 4 (in particular 1 to 3) mean a good to very good herbicidal action. In this test, the compounds of the formula I show a potent herbicidal action.

Compound | pre-emergence action, Cyperus [1] | pre-emergence action, Ipomoea [1] | pre-emergence action, Setaria [1] | pre-emergence action, Sinapis [1] | pre-emergence action, Solanum [1] | pre-emergence action, Stellaria [1] | Post-emergence action, Ipomoea [2] | Post-emergence action, Lolium [2] | Post-emergence action, Setaria [2] | Post-emergence action, Sinapis [2] | Post-emergence action, Solanum [2] | Post-emergence action, Stellaria [2]
CCOC(=O)C1(C)CCC(=O)C(C(=O)c2ccc(C(F)(F)F)nc2C)=C1O (stereo not drawn) [Compound A2-B35] | 2 | 4 | 2 | 2 | 2 | 2 | 1 | 3 | 2 | 1 | 1 | 2
Cc1nc(C(F)(F)F)ccc1C(=O)C1=C(O)C(C(C)C)CC(C)C1=O (stereo not drawn) [Compound A2-B49] | 2 | 4 | 2 | 2 | 1 | 2 | 2 | 2 | 2 | 1 | 2 | 2
Cc1nc(C(F)(F)F)ccc1C(=O)C1=C(O)C(C)(S(C)(=O)=O)CCC1=O (stereo not drawn) [Compound A2-B31] | 2 | 3 | 4 | 2 | 1 | 2 | 2 | 2 | 2 | 1 | 2 | 2
Cc1nc(C(F)(F)F)ccc1C(=O)C1=C(O)C(C)(S(C)(=O)=O)C2CC2C1=O (stereo not drawn) [Compound A2-D115] | 3 | 3 | 2 | 2 | 2 | 3 | 1 | 2 | 1 | 1 | 1 | 1
Cc1nc(C(F)(F)F)ccc1C(=O)C1=C(O)C(C)CC2(CCC2)C1=O (stereo not drawn) [Compound A2-C152] | 1 | 1 | 2 | 2 | 1 | 2 | 2 | 2 | 3 | 1 | 2 | 2
COC(=O)C1(C)CCC(=O)C(C(=O)c2ccc(C(F)(F)F)nc2C)=C1O (stereo not drawn) [Compound A2-B34] | 1 | 3 | 2 | 2 | 1 | 2 | 1 | 3 | 2 | 1 | 1 | 2
Cc1nc(C(F)(F)Cl)ccc1C(=O)C1=C(O)CCCC1=O [Compound A94-B1] | 1 | 2 | 2 | 1 | 1 | 2 | 1 | 2 | 2 | 1 | 1 | 1
COCc1nc(C(F)(F)F)ccc1C(=O)C1=C(O)C(C)CCC1=O (stereo not drawn) [Compound A8-B2] | 1 | 3 | 2 | 2 | 1 | 2 | 2 | 2 | 2 | 2 | 2 | 3
CCN(CC)CC.Cc1nc(C(F)(F)F)ccc1C(=O)C1=C(O)CCCC1=O [Compound A2-B1100] | 1 | 3 | 1 | 2 | 1 | 2 | 2 | 2 | 3 | 1 | 1 | 2
COC1CC(C)C(=O)C(C(=O)c2ccc(C(F)(F)F)nc2C)=C1O (stereo not drawn) [Compound A2-B1070, 3-Hydroxy-4-methoxy-6-methyl-2-(2-methyl-6-trifluoromethyl-pyridine-3-carbonyl)cyclohex-2-enone] | 2 | 3 | 3 | 2 | 2 | 2 | 2 | 4 | 2 | 2 | 2 | 2
Cc1nc(C(F)(F)F)ccc1C(=O)C1=C(O)C(C)(C)OC(C)(C)C1=O [Compound A2-B618] | 1 | 1 | 1 | 2 | 1 | 1 | 2 | 2 | 2 | 1 | 2 | 2
Cc1nc(C(F)(F)C(F)(F)C(F)(F)F)ccc1C(=O)C1=C(O)C(C)(C)CCC1=O [Compound A64-B24] | 4 | 4 | 2 | 2 | 1 | 2 | 2 | 2 | 4 | 1 | 2 | 2
Cc1nc(C(F)(F)C(F)(F)F)ccc1C(=O)C1=C(O)CCCC1=O [Compound A34-B1] | 1 | 2 | 2 | 2 | 2 | 3 | 1 | 2 | 2 | 1 | 1 | 2

Reference: patent publication US6673938B1, “Substituted pyridine herbicides” (Syngenta Participations AG, priority 1998, dated 2004)
